Experimental data from article PMC9700728 (Nature Communications, 2022).

Tests used:
BC2L-C-CTD = target: T1, BC2L-C-CTD (Burkholderia cenocepacia, UniProt B4EH86); assay: isothermal titration calorimetry; assay type: binding; settings: 20 mM HEPES-NaOH pH 8.0, 200 mM NaCl, 25 °C
T1 construct: gene BCAM0185; C-terminal domain of BC2L-C, N-terminal 6xHis-tag (modified pET28), expressed in E. coli BL21(DE3)
Excerpt: isothermal titration calorimetry on BC2L-C-CTD | BC2L-C-CTD bound only to mannose

[1] = target: T2, rThC (recombinant thrombocorticin, ThC) (unclassified Corticium (in: sponges), UniProt C0HM62); assay: inhibition of rThC-induced Ba/F3-HuMpl cell proliferation; assay type: cell-based; settings: rThC 1 μg/mL, RPMI-1640 with 10% FBS, 37 °C, 4 days; competes with MPL glycan
T2 construct: N-terminal 6xHis-tag (modified pET28), expressed in E. coli BL21(DE3); 131 residues, 14 kDa; homodimer, sugar site at protomer interface
T2 sequence (C0HM62 1-131): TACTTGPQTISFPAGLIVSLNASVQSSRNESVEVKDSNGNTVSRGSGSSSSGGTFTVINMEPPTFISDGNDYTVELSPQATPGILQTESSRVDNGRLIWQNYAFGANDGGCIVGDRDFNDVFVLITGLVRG

[2] = target: T2, rThC (recombinant thrombocorticin, ThC); assay: isothermal titration calorimetry; assay type: binding; settings: 5 mM CaCl2, 20 mM HEPES-NaOH pH 8.0, 200 mM NaCl, 25 °C; Ca2+-mediated site at dimer interface
[3] = target: human thrombopoietin receptor MPL on Ba/F3-HuMpl cells (human) (UniProt P40238)
[4] = target: T3, human thrombopoietin receptor MPL on Ba/F3-HuMpl cells (human, UniProt P40238 26-635); assay: cell-based or functional assay
T3 sequence (looked up): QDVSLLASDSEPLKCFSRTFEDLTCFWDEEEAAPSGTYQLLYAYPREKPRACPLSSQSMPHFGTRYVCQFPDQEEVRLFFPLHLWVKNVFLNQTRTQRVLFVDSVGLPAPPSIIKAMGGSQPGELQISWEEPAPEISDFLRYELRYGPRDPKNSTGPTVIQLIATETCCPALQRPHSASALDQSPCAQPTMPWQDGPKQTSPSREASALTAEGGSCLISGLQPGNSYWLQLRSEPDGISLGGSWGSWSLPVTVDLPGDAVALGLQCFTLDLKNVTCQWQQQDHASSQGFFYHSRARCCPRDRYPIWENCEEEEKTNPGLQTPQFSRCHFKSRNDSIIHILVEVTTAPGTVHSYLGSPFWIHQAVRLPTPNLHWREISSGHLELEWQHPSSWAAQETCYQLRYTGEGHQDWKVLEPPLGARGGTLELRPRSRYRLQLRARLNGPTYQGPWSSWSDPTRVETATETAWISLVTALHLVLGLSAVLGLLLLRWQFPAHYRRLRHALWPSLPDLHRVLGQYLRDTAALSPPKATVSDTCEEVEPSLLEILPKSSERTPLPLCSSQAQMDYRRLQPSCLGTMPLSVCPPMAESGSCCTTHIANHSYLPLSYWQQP

Which Kd (BC2L-C-CTD) does the source give for `OC[C@H]1OC(O)[C@@H](O)[C@@H](O)[C@@H]1O` (stereo partly drawn) [D-mannose] here?
The Kd was 17.7 ± 0.32 µM.

And the IC50 [1]?
Its IC50 is 6460 µM.

And the KD [2]?
The KD was 66.2 × 10 µM.

How did the IC50 [1] turn out when `C[C@@H]1OC(O)[C@@H](O)[C@H](O)[C@@H]1O` (stereo partly drawn) [L-fucose] was run?
Its IC50 is 22.8 µM.

And the Kd [2]?
Its Kd is 4.72 µM.

Which proliferation of Ba/F3-HuMpl cells, EC50 [3] does the source give for “PA-IIL (from UniProt Q9HYN5 1-115) (natural protein)” here?
Its proliferation of Ba/F3-HuMpl cells, EC50 is 18.1 µg/mL.

B1: N-terminal His-tagged recombinant thrombocorticin (wild type) (natural protein, UniProt C0HM62 1-131, looked up)
chain: T2 sequence (C0HM62 1-131)
For B1, which “proliferation of Ba/F3-HuMpl cells, EC50” value [4] is on record?
The value was 0.26 µg/mL.
